Broadly, the Ki is the dissociation constant of the complex between target and ligand, obtained from inhibition or displacement. High values mean weaker binding, low ones tighter binding.

Data on 30 molecules can be found in patent US10807959B2, “WDR5-MLL1 inhibitors and modulators” (Vanderbilt University, priority 2018, dated 2020).

In this test the target is WDR5 (Homo sapiens (Human), UniProt P61964). Nature of the test: TR-FRET binding assay, displacement of 10mer-Thr-FAM probe from His-tagged WDR5. To be noted: Inhibition of WDR5 by TR-FRET assay. The method, then: The LanthaScreenTM Elite Tb-anti-HIS Antibody from ThermoFisher Scientific was used for this purpose. […] The ratio of the 520 and 495 signals are then utilized to generate a dose-response curve to calculate an IC50 value. […] WDR[…] tag protein is used at 2 nM.
A general note: TR-FRET usually uses a lanthanide donor and a delayed reading to cut background.

`Cc1cnc(CNC(=O)c2cc(CNC3=NCCN3)cc(-c3ccc(F)nc3C)n2)cn1` [Example 76, 4-(((4,5-Dihydro-1H-imidazol-2-yl)amino)methyl)-6′-fluoro-2′-methyl-N-((5-methylpyrazin-2-yl)methyl)-[2,3′-bipyridine]-6-carboxamide] came in with a Ki of 32 nM.

Turning to `Cc1cnc(CNC(=O)c2cc(CNC3=NCCN3)cc(-c3ccc(F)nc3C)n2)nc1` [Example 77, 4-(((4,5-Dihydro-1H-imidazol-2-yl)amino)methyl)-6′-fluoro-2′-methyl-N-((5-methylpyrimidin-2-yl)methyl)-[2,3′-bipyridine]-6-carboxamide], the affinity, expressed as Ki, was 33 nM.

For `COc1cc(CNC(=O)c2cc(CNC3=NCCN3)cc(-c3ccc(F)nc3C)n2)cc(OC)c1` [Example 78, 4-(((4,5-Dihydro-1H-imidazol-2-yl)amino)methyl)-N-(3,5-dimethoxybenzyl)-6′-fluoro-2′-methyl-[2,3′-bipyridine]-6-carboxamide], the inhibitory constant (Ki) came out at 0.72 nM.

The molecule `COc1cc(CNC(=O)c2cc(CNC3=NCCN3)cc(-c3ccc(F)nc3C)n2)ccn1` [Example 79, 4-(((4,5-Dihydro-1H-imidazol-2-yl)amino)methyl)-6′-fluoro-N-((2-methoxypyridin-4-yl)methyl)-2′-methyl-[2,3′-bipyridine]-6-carboxamide] returned an inhibitory constant (Ki) of 5.74 nM.

In turn, `Cc1ncc(CNC(=O)c2cc(CNC3=NCCN3)cc(-c3ccc(F)nc3C)n2)cn1` [Example 80, 4-(((4,5-Dihydro-1H-imidazol-2-yl)amino)methyl)-6′-fluoro-2′-methyl-N-((2-methylpyrimidin-5-yl)methyl)-[2,3′-bipyridine]-6-carboxamide] came in with a Ki of 22 nM.

Turning to `Cc1ccncc1-c1cc(CNC2=NCCN2)cc(C(=O)NCc2ccc(Cl)c(Cl)c2)n1` [Example 81, N-(3,4-Dichlorobenzyl)-4-(((4,5-dihydro-1H-imidazol-2-yl)amino)methyl)-4′-methyl-[2,3′-bipyridine]-6-carboxamide], the affinity, expressed as Ki, was 0.24 nM.

Molecule `Cc1cc(-c2cc(CNC3=NCCN3)cc(C(=O)NCc3ccc(Cl)c(Cl)c3)n2)ccn1` [Example 82, N-(3,4-Dichlorobenzyl)-4-(((4,5-dihydro-1H-imidazol-2-yl)amino)methyl)-2′-methyl-[2,4′-bipyridine]-6-carboxamide] had an inhibition constant Ki of 0.46 nM.

For `COc1ncc(C)cc1-c1cc(CNC2=NCCN2)cc(C(=O)NCc2ccc(Cl)c(Cl)c2)n1` [Example 83, N-(3,4-Dichlorobenzyl)-4-(((4,5-dihydro-1H-imidazol-2-yl)amino)methyl)-2′-methoxy-5′-methyl-[2,3′-bipyridine]-6-carboxamide], the Ki is 0.31 nM.

Molecule `Cc1cnccc1-c1cc(CNC2=NCCN2)cc(C(=O)NCc2ccc(Cl)c(Cl)c2)n1` [Example 84, N-(3,4-Dichlorobenzyl)-4-(((4,5-dihydro-1H-imidazol-2-yl)amino)methyl)-3′-methyl-[2,4′-bipyridine]-6-carboxamide] had an inhibitory constant (Ki) of 0.15 nM. This Ki lies about 2.1-fold lower than the previous one.

`COc1ncc(Cl)cc1-c1cc(CNC2=NCCN2)cc(C(=O)NCc2ccc(Cl)c(Cl)c2)n1` [Example 86, 5′-Chloro-N-(3,4-dichlorobenzyl)-4-(((4,5-dihydro-1H-imidazol-2-yl)amino)methyl)-2′-methoxy-[2,3′-bipyridine]-6-carboxamide] showed a Ki of under 0.1 nM.

As to `CCOc1ncc(C)cc1-c1cc(CNC2=NCCN2)cc(C(=O)NCc2ccc(Cl)c(Cl)c2)n1` [Example 88, N-(3,4-dichlorobenzyl)-4-(((4,5-dihydro-1H-imidazol-2-yl)amino)methyl)-2′-ethoxy-5′-methyl-[2,3′-bipyridine]-6-carboxamide], the inhibition constant Ki came out at 0.12 nM. This counts as sub-nanomolar.

Regarding `Cc1cc([C@H](C)NC(=O)c2cc(CNC3=NCCC3)cc(-c3ccc(F)cc3C(F)(F)F)n2)ccc1Cl` [Example 92, (S)—N-(1-(4-chloro-3-methylphenyl)ethyl)-4-(((3,4-dihydro-2H-pyrrol-5-yl)amino)methyl)-6-(4-fluoro-2-(trifluoromethyl)phenyl)picolinamide], the affinity, expressed as Ki, was 1.5 nM.

`COc1cc(OC)cc(C(C)NC(=O)c2cc(CNC3=NCCC3)cc(-c3ccc(F)cc3C(F)(F)F)n2)c1` (stereo not drawn) [Example 93, 4-(((3,4-dihydro-2H-pyrrol-5-yl)amino)methyl)-N-(1-(3,5-dimethoxyphenyl)ethyl)-6-(4-fluoro-2-(trifluoromethyl)phenyl)picolinamide] returned a Ki of 3.3 nM.

`COc1ccnc(CNC(=O)c2cc(CNC3=NCCC3)cc(-c3ccc(F)cc3C(F)(F)F)n2)c1` [Example 94, 4-(((3,4-dihydro-2H-pyrrol-5-yl)amino)methyl)-6-(4-fluoro-2-(trifluoromethyl)phenyl)-N-((4-methoxypyridin-2-yl)methyl)picolinamide] gave a Ki of 1.2 nM.

`Cc1ccnc(C(NC(=O)c2cc(CNC3=NCCC3)cc(-c3ccc(F)cc3C)n2)C2CC2)c1` (stereo not drawn) [Example 95, N-(Cyclopropyl(4-methylpyridin-2-yl)methyl)-4-(((3,4-dihydro-2H-pyrrol-5-yl)amino)methyl)-6-(4-fluoro-2-methylphenyl)picolinamide] displayed a Ki of 8.6 nM.

`Cc1cc(C(C)NC(=O)c2cc(CNC3=NCCC3)cc(-c3ccc(F)cc3C(F)(F)F)n2)ncc1Cl` (stereo not drawn) [Example 96, N-(1-(5-chloro-4-methylpyridin-2-yl)ethyl)-4-(((3,4-dihydro-2H-pyrrol-5-yl)amino)methyl)-6-(4-fluoro-2-(trifluoromethyl)phenyl)picolinamide] registered an inhibition constant (Ki) of 1.5 nM.

Consider `Cc1cc(F)ccc1-c1cc(CNC2=NCCC2)cc(C(=O)N[C@@H](C)c2ccc(F)c(C(F)(F)F)c2)n1` [Example 97, (S)-4-(((3,4-dihydro-2H-pyrrol-5-yl)amino)methyl)-6-(4-fluoro-2-methylphenyl)-N-(1-(4-fluoro-3-(trifluoromethyl)phenyl)ethyl)picolinamide], for which the affinity corresponds to a Ki of 7.3 nM.

The molecule `Cc1nc(F)ccc1-c1cc(CNC2=NCCN2)cc(C(=O)NCc2ccc(=O)[nH]c2)n1` [Example 98, 4-(((4,5-dihydro-1H-imidazol-2-yl)amino)methyl)-6′-fluoro-2′-methyl-N-((6-oxo-1,6-dihydropyridin-3-yl)methyl)-[2,3′-bipyridine]-6-carboxamide] displayed a Ki of 23 nM.

`COc1cc(CNC(=O)c2cc(CNC(=N)N)cc(-c3ccnc(C)c3)c2)cc(OC)c1` [Example 99, N-(3,5-Dimethoxybenzyl)-3-(guanidinomethyl)-5-(2-methylpyridin-4-yl)benzamide] registered an inhibition constant (Ki) of 1.1 nM.

In turn, `Cc1cc(-c2cc(CNC(=N)N)cc(C(=O)NCc3cc(F)cc(Cl)c3)c2)ccn1` [Example 100, N-(3-Chloro-5-fluorobenzyl)-3-(guanidinomethyl)-5-(2-methylpyridin-4-yl)benzamide] yielded a Ki of 2.4 nM. This Ki lies about 2.2-fold higher than the previous one.

Consider `COc1ccc(CNC(=O)c2cc(CNC(=N)N)cc(-c3ccnc(C)c3)c2)cc1Cl` [Example 101, N-(3-Chloro-4-methoxybenzyl)-3-(guanidinomethyl)-5-(2-methylpyridin-4-yl)benzamide], for which the affinity corresponds to a Ki of 2.1 nM.

Consider `COc1ccnc(CNC(=O)c2cc(CNC(=N)N)cc(-c3ccnc(C)c3)c2)c1` [Example 102, 3-(Guanidinomethyl)-N-((4-methoxypyridin-2-yl)methyl)-5-(2-methylpyridin-4-yl)benzamide], for which the inhibitory constant (Ki) was 1 nM.

`Cc1cc(-c2cc(CNC(=N)N)cc(C(=O)NCc3ccc(Cl)cn3)c2)ccn1` [Example 103, N-((5-Chloropyridin-2-yl)methyl)-3-(guanidinomethyl)-5-(2-methylpyridin-4-yl)benzamide] registered a Ki of 3.3 nM.

Molecule `Cc1ccc(CNC(=O)c2cc(CNC(=N)N)cc(-c3ccnc(C)c3)c2)cn1` [Example 104, 3-(guanidinomethyl)-N-((6-methylpyridin-3-yl)methyl)-5-(2-methylpyridin-4-yl)benzamide] returned a Ki of 12 nM.

Take `CCn1cc(-c2cc(CNC(=N)CC3CC3)cc(C(=O)N[C@H](c3ccc(F)c(C)c3)C3CC3)c2)c(C(F)(F)F)n1` [Example 107, (S)—N-(Cyclopropyl(4-fluoro-3-methylphenyl)methyl)-3-((2-cyclopropylacetimidamido)methyl)-5-(1-ethyl-3-(trifluoromethyl)-1H-pyrazol-4-yl)benzamide]: affinity was put at a Ki of 0.15 nM.

Molecule `CCn1cc(-c2cc(CNC(=N)C3CCOC3)cc(C(=O)N[C@H](c3ccc(F)c(C)c3)C3CC3)c2)c(C(F)(F)F)n1` (stereo partly drawn) [Example 108, N—((S)-Cyclopropyl(4-fluoro-3-methylphenyl)methyl)-3-(1-ethyl-3-(trifluoromethyl)-1H-pyrazol-4-yl)-5-((tetrahydrofuran-3-carboximidamido)methyl)benzamide] returned a Ki of 2 nM.

Consider `CCn1cc(-c2cc(CNC(=N)C3(C)CC3)cc(C(=O)N[C@H](c3ccc(F)c(C)c3)C3CC3)c2)c(C(F)(F)F)n1` [Example 109, (S)—N-(Cyclopropyl(4-fluoro-3-methylphenyl)methyl)-3-(1-ethyl-3-(trifluoromethyl)-1H-pyrazol-4-yl)-5-((1-methylcyclopropane-1-carboximidamido)methyl)benzamide], for which the inhibition constant (Ki) turned out to be 0.13 nM.

As for `CC1(NC(=O)c2cc(Cn3ccnc3)cc(-c3ccc(F)cc3Cl)c2)CCCC1` [Example 138, 5-((1H-Imidazol-1-yl)methyl)-2′-chloro-4′-fluoro-N-(1-methylcyclopentyl)-[1,1′-biphenyl]-3-carboxamide], the Ki was determined as 50 nM.

For the molecule `Cc1nc(F)ccc1-c1cc(Cn2ccnc2C2CC2)cc(C(=O)NCc2ccc(Cl)c(Cl)c2)c1` [Example 139, 3-((2-Cyclopropyl-1H-imidazol-1-yl)methyl)-N-(3,4-dichlorobenzyl)-5-(6-fluoro-2-methylpyridin-3-yl)benzamide], the inhibitory constant (Ki) is 1.6 nM.

In the case of `COc1cc(CN(C)C(=O)c2cc(Cn3ccnc3)cc(-c3ccc(F)nc3C)c2)cc(OC)c1` [Example 140, 3-((1H-Imidazol-1-yl)methyl)-N-(3,5-dimethoxybenzyl)-5-(6-fluoro-2-methylpyridin-3-yl)-N-methylbenzamide], the Ki is 95 nM.
